The text below walks through data of US12509438B2, “Pyrazole derivative” (Aptabio Therapeutics Inc., priority 2020, dated 2025).

For assay [1], the system named is LX-2 cells. Description: ROS production in LX-2 cells (L-012 or DCF-DA). In kind it is cell-based, human. Conditions: FIG. 1. The source says: (§1) In order to confirm an effect of the synthetic example compounds on ROS production from fibroblasts and specific substrate cells, ROS production was induced by stimulation of PMA (phorbol 12-myristate 13-acetate), TGF-β1, palmitate or high concentration-glucose, or the like for HL-60 cells (Korean Cell Line Bank), NHLF(normal human lung fibroblast, Lonza), LX-2 (human hepatic stellate cells, Sigma), ARPE19 (human retinal pigment epithelial cell, ATCC), KEL-FIB (Keloid fibroblast, ATCC) cells differentiated into neutrophil cells by treatment of DMSO, and the inhibitory effect of ROS production of the synthetic example compounds was observed under this condition.
(§2) NHLF (normal human lung fibroblast, Lonza), LX-2 (human hepatic stellate cells, Sigma), ARPE19 (human retinal pigment epithelial cell, ATCC), KEL-FIB (keloid fibroblast, ATCC) cells were suspended in a culture medium comprising 10% FBS and aliquoted in a 96 well plate, and then cultured under the condition of 5% CO2, 37° C. for 24 hours. The synthetic example compound was pretreated from 30 minutes to 1 hour, and then a ROS stimulus was treated to each well comprising cells and a drug. After additional culturing for 48 hours, the level of ROS production was confirmed by using L-012 or DCF-DA.

The test system of assay [2] is NHLF cells. The experiment in a line: ROS production in NHLF cells (L-012 or DCF-DA). It counts as cell-based, human. The following applies: FIG. 1.
Source text: as §1, §2

Assay [3] relates to αSMA. Description: Expression of αSMA induced by TGF-β1 in ARPE19 cells (immunocytochemistry). The following applies: compound 5 μM, TGF-β1 10 ng/ml, FIG. 3a/3b. It counts as cell-based, human. The source says:
(§3) In order to confirm whether the synthetic example compound of the present invention affects differentiation of fibroblasts into myofibroblasts, the inhibitory effect of the synthetic example compound for increasing expression of αSMA (a biomarker for confirming differentiation into myofibroblasts) induced by TGF-β1 for HL-60 cells (Korean Cell Line Bank), HFF-1 (human foreskin fibroblast, ATCC), NHLF (normal human lung fibroblast, Lonza), LX-2 (human hepatic stellate cells, Sigma), ARPE19 (human retinal pigment epithelial cell, ATCC), KEL-FIB (Keloid fibroblast, ATCC) cells was to be observed.
Each cell was suspended in a DMEM medium comprising 10% FBS and aliquoted on a 4-well chamber slide (Nunc) at a concentration of 1×10^4 cells/well, and the synthetic example compound and TGF-β1(TGF 131, TGF-β are all same meanings) were treated to prepare cells to be used for confirmation of αSMA expression. […] After performing fixation with 4% paraformaldehyde for 10 minutes and permeabilization using 0.1% Triton x-100 for the cells, the process of treating a primary antibody (anti-αSMA Ab, 1:200, at 4° C. for 16 hours) and a secondary antibody (Alexa-594 conjugated Ab, 1:800, at a room temperature for 1 hour) against αSMA was progressed sequentially, and then the level of expression of αSMA was observed by using a fluorescence microscope. […]

Assay [4] deals with αSMA. The experiment in a line: Expression of αSMA induced by TGF-β1 in HFF-1 cells (immunocytochemistry). In kind it is cell-based, human. Conditions: compound 5 μM, TGF-β1 10 ng/ml, FIG. 3a/3b.
Source text: as §3
(§4) Each cell was suspended in a DMEM medium comprising 10% FBS and aliquoted on a 4-well chamber slide (Nunc) at a concentration of 1×10^4 cells/well, and the synthetic example compound and TGF-β1(TGF 131, TGF-β are all same meanings) were treated to prepare cells to be used for confirmation of αSMA expression. […] After performing fixation with 4% paraformaldehyde for 10 minutes and permeabilization using 0.1% Triton x-100 for the cells, the process of treating a primary antibody (anti-αSMA Ab, 1:200, at 4° C. for 16 hours) and a secondary antibody (Alexa-594 conjugated Ab, 1:800, at a room temperature for 1 hour) against αSMA was progressed sequentially, and then the level of expression of αSMA was observed by using a fluorescence microscope.

In assay [5] the test system is αSMA. Description: Expression of αSMA induced by TGF-β1 in LX-2 cells (immunocytochemistry). In kind it is cell-based, human. The following applies: compound 5 μM, TGF-β1 10 ng/ml, FIG. 3a/3b.
Source text: as §3, §4

Assay [6] concerns αSMA. Description: Expression of αSMA induced by TGF-β1 in NHLF cells (immunocytochemistry). In kind it is cell-based, human. Conditions: compound 5 μM, TGF-β1 10 ng/ml, FIG. 3a/3b.
Source text: as §3, §4

The subject of assay [7] is αSMA. The experiment in a line: Expression of αSMA induced by TGF-β1 in KEL-FIB cells (immunocytochemistry). It counts as cell-based. Conditions: compound 5 μM, TGF-β1 10 ng/ml, FIG. 3a/3b.
Source text: as §3, §4

For assay [8], the system named is N27 cells. Description: ROS production induced by MPP+ in N27 dopaminergic nerve cells (DCF-DA). In kind it is cell-based, rat. The following applies: compound 1 μM, 24 hours, FIG. 4. The source says: The high ROS level in nerve cells induces oxidized lipids, and this is known as an important element for nerve cell death. In order to confirm the effect of the synthetic example compound on ROS production from dopaminergic nerve cells, ROS production was induced by stimulation of MPP+(1-methyl-4-phenylptridinium) for N27 (rat dopaminergic neural cell, Sigma) cells, and the inhibitory effect of ROS production of the synthetic example compound was observed under this condition.
N27 cells were cultured in a RPMI medium comprising 10% FBS, […], and the cultured cells were aliquoted in a 6 well plate at a concentration of 5×10^3˜6×10^3 cells/well. The ROS production stimuli, MPP+ (1-methyl-4-phenylptridinium) and Synthetic example compound 3 (1 μM) were treated into the cells. In 24 hours after treating the synthetic example compound, by measuring fluorescence of each well using DCF-DA, the ROS production level was confirmed.

The subject of assay [9] is CTGF gene. Description: CTGF gene expression induced by TGF-β1 in KEL-FIB keloid fibroblasts (qRT-PCR). Conditions: KEL-FIB cells; 5 μM or 10 μM compound; 2 ng/ml TGF-β1; 24 or 48 hours. It counts as cell-based. On the procedure: (§5) In order to confirm the effect on the process of producing extracellular matrix from keloid fibroblasts of the synthetic example compound, the expression change of an extracellular matrix formation promoting factor, CTGF and a representative extracellular matrix, collagen type I according to treatment of the Synthetic example 3 compound for KEL-FIB (keloid fibroblast) cells was analyzed at a gene level.
(§6) The KEL-FIB cell line was adapted in a DMEM comprising 2% FBS for 24 hours and then the Synthetic example 3 compound at a concentration of ? 5 μM or 10 μM was pretreated for 1 hour. For inducing expression of CTGF and collagen type I genes, 2 ng/ml TGF-β1 was treated and mRNA was extracted from the cells after 24 or 48 hours. The presence of mRNA and expression level of CTGF and collagen type 1 genes were confirmed by qRT-PCR (Quantitative real-time PCR).
In general terms: Quantitative PCR measures a nucleic acid by following its amplification.

Assay [10] relates to collagen type I gene. The experiment in a line: Collagen type I gene expression induced by TGF-β1 in KEL-FIB keloid fibroblasts (qRT-PCR). In kind it is cell-based. Conditions: KEL-FIB cells; 5 μM or 10 μM compound; 2 ng/ml TGF-β1; 24 or 48 hours. On the procedure:
as §5, §6

For assay [11], the system named is IL-1β. Description: Expression of IL-1β induced by LPS in LX-2 cells (RT-PCR). In kind it is cell-based, human. Conditions: 30 min pretreatment, LPS 6 hours, FIG. 5. On the procedure:
(§7) After inoculating a 2×10^5 number of cells in a 6 well plate and culturing for 24 hours and then further culturing in a culture solution without serum for 16 hours, the Synthetic example 3 compound was pretreated according to each condition for 30 minutes and inflammation reaction was induced by LPS for 6 hours. The expression of IL-1β was confirmed by using RT-PCR. The total RNA was separated from the cells by using RNeasy mini kit (Qiagen) and from the separated RNA 2 ug, cDNA was synthesized by using PrimeScript™ II 1st strand cDNA synthesis kit (TaKaRa) and then PCR was performed by AccuPower® PCR PreMix (Bioneer) to amplify genes. The sequence for target primers is as follows. IL-1β (forward: 5′-[…]-3′, reverse: 5′-[…]-3′); GAPDH (forward: 5′-[…]-3′, reverse: 5′-[…]-3′); β-actin (forward: 5′-[…]-3′, reverse: 5′-[…]-3′). The PCR product was confirmed by electrophoresis in 1.5% agarose gel.

Assay [12] has as its system IL-1β. The experiment in a line: Expression of IL-1β induced by LPS in NHLF cells (RT-PCR). It counts as cell-based, human. Conditions: 30 min pretreatment, LPS 6 hours, FIG. 5. On the procedure:
as §7

With `Oc1c2c(nn1-c1ccccn1)CN(Cc1ccccc1)CC2` [Synthetic example 3, 6-benzyl-2-(pyridin-2-yl)-4,5,6,7-tetrahydro-2H-pyrazolo[3,4-c]pyridin-3-ol], the “inhibition of ROS production induced by PMA” value in assay [1] and in assay [2] was “inhibited ROS production” throughout. The “inhibition of increase of expression of αSMA induced by TGF-β1” value in assay [3], in assay [4], in assay [5], in [6] and in assay [7] was “significantly inhibited” throughout. For the same compound, the “inhibition of ROS production induced by MPP+” value in [8] was “inhibiting production of ROS”. For the same compound, the “inhibition of expression of the CTGF gene” value in assay [9] is given as 76%. Also, in assay [10], the “inhibition of expression of the collagen type I gene” value was 75%. In addition, the “inhibition of IL-1β induced by LPS” value in assay [11] and in assay [12] was “effectively inhibited in a concentration-dependent manner” each time.
